Literature values in patent US20030190360A1, “Chronotherapeutic dosage forms containing glucocorticosteroid and methods of treatment” (priority 2001, published 2003).

Settings: equivalent doses of glucocorticoids

| SMILES | Approximate Equivalent Dose [mg] |
| --- | --- |
| C[C@]12CCC(=O)C=C1CC[C@@H]1[C@@H]2[C@@H](O)C[C@@]2(C)[C@H]1CC[C@]2(O)C(=O)CO [Hydrocortisone] | 20 |
| C[C@]12C=CC(=O)C=C1CC[C@@H]1[C@@H]2[C@@H](O)C[C@@]2(C)[C@H]1CC[C@]2(O)C(=O)CO [Prednisolone] | 5 |
| C[C@]12CCC(=O)C=C1CC[C@@H]1[C@@H]2C(=O)C[C@@]2(C)[C@H]1CC[C@]2(O)C(=O)CO [Cortisone] | 25 |
| C[C@]12C=CC(=O)C=C1CC[C@H]1[C@@H]3C[C@@H](O)[C@](O)(C(=O)CO)[C@@]3(C)C[C@H](O)[C@@]12F [Triamcinolone] | 4 |
